Assays:
[1] = Body weight and tolerability, SK-OV-3 study; type: in vivo, mice; settings: PO
Procedure: SK-OV-3 cells obtained from ATCC (Rockville, Md.) were grown in McCoy's medium containing 10% fetal bovine serum and pen/strep. Exponentially growing cells were harvested and inoculated SC (5 million cells/animal) into female athymic mice. The tumor measurements and body weight changes were obtained on days 1, 3, 6, 10, 13 and 18. Tumor volume was calculated by the following formula: Tumor volume (mm^3)═(W×W)/2×L (L=length & W=width). Blood samples (˜50 μl) were isolated at 0.5, 1, 2, 4 and 8 hrs after dosing on day 18 for PK-analysis. Tumors were isolated at 0.5 hr post-dosing on day 18 for PD-analysis by ELISA. The p-erbB2 reduction, tumor volume and body weight changes in control and test compound treated animals are shown below in Table 2.

BT-474 tumors = assay: BT-474 xenograft tumor growth in athymic mice; type: in vivo, human; settings: PO; for % Growth inhibition: 22 days
From the text: The in vivo anti-tumor activity of the compounds for use in the methods of the present invention can be determined by the amount of inhibition of tumor growth by a test compound relative to a control. The tumor growth inhibitory effects of various compounds can be measured according to the method of Corbett T. H., et al., “Tumor Induction Relationships in Development of Transplantable Cancers of the Colon in Mice for Chemotherapy Assays, with a Note on Carcinogen Structure”, Cancer Res., 35, 2434-2439 (1975) and Corbett T. H., et al., “A Mouse Colon-tumor Model for Experimental Therapy”, Cancer Chemother. Rep. (Part 2)”, 5, 169-186 (1975), with slight modifications. Tumors can be induced in the left flank of mice by subcutaneous (sc) injection of 1-5 million log phase cultured tumor cells suspended in 0.1 ml RPMI 1640 medium. After sufficient time has elapsed for the tumors to become palpable (˜100-150 mm^3 in size/5-6 mm in diameter) the test animals (athymic female mice) are treated with test compound (formulated at a concentration of 10 to 15 mg/ml in 5 Gelucire or 0.5% methyl cellulose) by the intravenous (iv) or oral (po) route of administration once or twice daily for 7 to 29 consecutive days. In order to determine an anti-tumor effect, the tumor is measured in millimeters with a Vernier caliper across two diameters and the tumor size (mm^3) is calculated using the formula: Tumor size (mm^3)=(W×W)/2×L (L=length and W=width), according to the methods of Geran, R. I., et al. “Protocols for Screening Chemical Agents and Natural Products Against Animal Tumors and Other Biological Systems”, Third Edition, Cancer Chemother. Rep., 3, 1-104 (1972). Results are expressed as percent inhibition, according to the formula: Inhibition Growth (%)=[100-{(% Growth of Treated/% Growth of Control)×100}]. The flank site of tumor implantation provides reproducible dose/response effects for a variety of chemotherapeutic agents, and the method of measurement (tumor diameter) is a reliable method for assessing tumor growth rates.
Exponentially growing BT-474 cells (RPMI 1640 with 10 mM HEPES, 10% FBS, and pen/strep [Gibco]) were harvested and inoculated SC (5 million cells/animal) into female athymic mice. Trochar pieces of BT-474 tumors were then implanted into the right flank of animals. BT-474 tumor bearing mice (50-320 mm^3 in size, N=40) were randomized in 7 groups consisting 5-6 animals each. Animals were treated with vehicle (PO, BID) or the test compound (PO, QD or BID) as described in Table 4. The tumor measurements and body weight changes were obtained on days 1, 6, 11, 15 and 22. Tumor volume was calculated by the following formula: Tumor volume (mm^3)═(W×W)/2×L (L=length & W=width). Blood samples (˜50 μl) were isolated at 0.5, 1, 2, 4 and 8 hrs after dosing on day 22 for PK-analysis. Tumors were isolated at 0.5 hr post-dosing on day 22 for PD-analysis by ELISA.
Statistical Analysis: ANOVA was conducted on the percentage growth data and planned comparisons were conducted between like-doses. The data were log transformed for the analysis due to the distribution of the values. The Dunnett-Tamahane procedure was used for the multiple comparison analysis.
Thus, oral anti-tumor efficacy of the test compound (QD and BID) was determined against human breast adenocarcinoma model BT-474 which overexpresses erbB2. The test compound administration (QD or BID) was efficacious and caused growth inhibition of BT-474 xenografts (FIGS. 5a and 5b). […] Due to a wide variation in the initial tumor volume, % growth of individual tumor was calculated and an average of each group was used to determine relative anti-tumor efficacy.

[2] = Body weight and tolerability, MDA-MB-453 study; type: in vivo, mice; settings: PO
Procedure: Study Design: Exponentially growing MDA-MB-453 cells (DMEM/F12 with 10% FBS, and pen/strep [Gibco]) were harvested and inoculated SC (5 million cells/animal) into female athymic mice. MDA-MB-453 tumor bearing mice (˜100 mm^3 in size, N=64) were randomized in 8 groups consisting 8 animals each. Animals were treated with vehicle (PO, QD or BID) or the test compound (PO, QD or BID) as described in Table 6. The tumor measurements and body weight changes were obtained on days 1, 3, 7, 10, 14, 17, 21, 24, and 29. Tumor volume was calculated by the following formula: Tumor volume (mm^3)═(W×W)/2×L (L=length & W=width). Blood samples (˜50 μl) were isolated at 0.5, 1, 2, 4 and 8 hrs after dosing on day 29 for PK-analysis. Tumors were isolated at 0.5 hr post-dosing on day 29 for PD-analysis by ELISA.

With `COCC(=O)NC/C=C/c1ccc2ncnc(Nc3ccc(Oc4ccc(C)nc4)c(C)c3)c2c1` [Test Compound, E-2-Methoxy-N-(3-{4-(3-methyl-4-(6-methyl-pyridin-3-yloxy)-phenylamino)-quinazolin-6-yl}-allyl)-acetamide] the “average body weight Day 1” value ([1]; BID 25 mg/kg) was 24 g, the “average body weight Day 18” value ([1]; BID 25 mg/kg) was 26 g and the “average body weight Day 1” value ([1]; BID 50 mg/kg) was 24 g. The “average body weight Day 18” value ([1]; BID 50 mg/kg) was 25 g, the “average body weight Day 1” value ([1]; BID 100 mg/kg) was 23 g and the “average body weight Day 18” value ([1]; BID 100 mg/kg) was 23 g. For the same compound, the “average body weight Day 1” value ([1]; QD 50 mg/kg) was 23 g, the “average body weight Day 18” value ([1]; QD 50 mg/kg) was 24 g and the “average body weight Day 1” value ([1]; QD 100 mg/kg) was 23 g. For the same compound, the “average body weight Day 18” value ([1]; QD 100 mg/kg) was 25 g, the “average body weight Day 1” value ([1]; QD 200 mg/kg) was 23 g and the “average body weight Day 18” value ([1]; QD 200 mg/kg) was 24 g. For the same compound, the “tolerability, body weight loss or animal mortality” value ([1]; QD or BID, 18 days) was “well tolerated and there was no body weight loss or animal mortality”, the “Tumor volume Day 1 (Mean ± SE)” value (BT-474 tumors; BID 50 mg/kg) was 155 ± 42 mm^3 and the “% Growth inhibition” value (BT-474 tumors; BID, 15 mg/kg (Total Daily Dose = 30 mg/kg)) was 54%. The “Tumor volume Day 1 (Mean ± SE)” value (BT-474 tumors; BID, 15 mg/kg) was 114 ± 47 mm^3, the “Tumor volume Day 22 (Mean ± SE)” value (BT-474 tumors; BID, 15 mg/kg) was 520 ± 254 mm^3 and the “% Growth inhibition” value (BT-474 tumors; BID, 30 mg/kg (Total Daily Dose = 60 mg/kg)) was 68%. The “Tumor volume Day 1 (Mean ± SE)” value (BT-474 tumors; BID, 30 mg/kg) was 161 ± 44 mm^3, the “Tumor volume Day 22 (Mean ± SE)” value (BT-474 tumors; BID, 30 mg/kg) was 530 ± 240 mm^3 and the “% Growth inhibition” value (BT-474 tumors; BID, 50 mg/kg (Total Daily Dose = 100 mg/kg)) was 68%. The “Tumor volume Day 22 (Mean ± SE)” value (BT-474 tumors; BID, 50 mg/kg) was 413 ± 98 mm^3, the “Tumor volume Day 1 (Mean ± SE)” value (BT-474 tumors; QD 50 mg/kg) was 153 ± 40 mm^3 and the “% Growth inhibition” value (BT-474 tumors; QD, 15 mg/kg) was 22%. For the same compound, the “Tumor volume Day 1 (Mean ± SE)” value (BT-474 tumors; QD, 15 mg/kg) was 78 ± 18 mm^3, the “Tumor volume Day 22 (Mean ± SE)” value (BT-474 tumors; QD, 15 mg/kg) was 376 ± 79 mm^3 and the “% Growth inhibition” value (BT-474 tumors; QD, 30 mg/kg) was 33%. For the same compound, the “Tumor volume Day 1 (Mean ± SE)” value (BT-474 tumors; QD, 30 mg/kg) was 139 ± 31 mm^3, the “Tumor volume Day 22 (Mean ± SE)” value (BT-474 tumors; QD, 30 mg/kg) was 635 ± 189 mm^3 and the “% Growth inhibition” value (BT-474 tumors; QD, 50 mg/kg) was 35%. The “Tumor volume Day 22 (Mean ± SE)” value (BT-474 tumors; QD, 50 mg/kg) was 608 ± 136 mm^3, the “average body weight Day 1” value ([2]; BID 25 mg/kg) was 22 g and the “average body weight Day 29” value ([2]; BID 25 mg/kg) was 23 g. For the same compound, the “average body weight Day 1” value ([2]; BID 50 mg/kg) was 23 g, the “average body weight Day 29” value ([2]; BID 50 mg/kg) was 24 g and the “average body weight Day 1” value ([2]; BID 100 mg/kg) was 23 g. The “average body weight Day 29” value ([2]; BID 100 mg/kg) was 25 g, the “average body weight Day 1” value ([2]; QD 50 mg/kg) was 23 g and the “average body weight Day 29” value ([2]; QD 50 mg/kg) was 25 g. The “average body weight Day 1” value ([2]; QD 100 mg/kg) was 23 g, the “average body weight Day 29” value ([2]; QD 100 mg/kg) was 25 g and the “average body weight Day 1” value ([2]; QD 200 mg/kg) was 22 g. For the same compound, the “average body weight Day 29” value ([2]; QD 200 mg/kg) was 24 g and the “tolerability, body weight loss or animal mortality” value ([2]; QD or BID, 29 days) was “well tolerated and there was no body weight loss or animal mortality”.
